The assay has as its target Sortase A (SrtA) (Staphylococcus aureus, UniProt Q2FV99). The experiment in a line: intrinsic fluorescence quenching with purified recombinant SrtA (KA); also FRET inhibition of purified SrtA, IC50 =[…], reversible. Type of assay: binding.

Sortase A (SrtA), sequence (Q2FV99 whole entry): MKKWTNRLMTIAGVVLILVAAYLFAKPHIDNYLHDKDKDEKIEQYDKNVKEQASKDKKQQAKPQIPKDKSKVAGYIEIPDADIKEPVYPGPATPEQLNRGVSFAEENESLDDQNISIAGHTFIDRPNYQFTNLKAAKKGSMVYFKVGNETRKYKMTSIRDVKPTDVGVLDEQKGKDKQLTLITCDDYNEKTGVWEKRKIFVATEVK

Take `O=c1cc(-c2ccc(O)cc2)oc2cc(O)c([C@@H]3O[C@H](CO)[C@@H](O)[C@H](O)[C@H]3O)c(O)c12` [isovitexin]: the Kd (usually the free concentration of one partner at which half of the binding sites on the other are occupied at equilibrium, for simple one-to-one binding) is 14 µM.

Source of the values: article PMC9668100, “Isovitexin Protects Mice from Methicillin-Resistant Staphylococcus aureus-Induced Pneumonia by Targeting Sortase A” (Journal of Microbiology and Biotechnology, 2022).
